Activity calls are given as the source filed them.
Assays:
[1] = molecular target: Voltage-dependent T-type calcium channel subunit alpha-1H (Homo sapiens, UniProt O95180); type: functional;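 also: channel activity triggered by adding a high calcium stimulation buffer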
Beta-galactosidase = Beta-galactosidase (Escherichia coli, UniProt Q8VNN2); experiment: PubChem AID 485352; type: functional
[2] = molecular target: T1, Type-1 angiotensin II receptor (Homo sapiens, UniProt P30556); experiment: AT1 receptor antagonists, dose response, selectivity assay for APJ receptor antagonist project, cell-based, uHTS hits (AID 463214); type: functional;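 also: antagonist potency against angiotensin II stimulated AT1 response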
T1 sequence (P30556 whole entry): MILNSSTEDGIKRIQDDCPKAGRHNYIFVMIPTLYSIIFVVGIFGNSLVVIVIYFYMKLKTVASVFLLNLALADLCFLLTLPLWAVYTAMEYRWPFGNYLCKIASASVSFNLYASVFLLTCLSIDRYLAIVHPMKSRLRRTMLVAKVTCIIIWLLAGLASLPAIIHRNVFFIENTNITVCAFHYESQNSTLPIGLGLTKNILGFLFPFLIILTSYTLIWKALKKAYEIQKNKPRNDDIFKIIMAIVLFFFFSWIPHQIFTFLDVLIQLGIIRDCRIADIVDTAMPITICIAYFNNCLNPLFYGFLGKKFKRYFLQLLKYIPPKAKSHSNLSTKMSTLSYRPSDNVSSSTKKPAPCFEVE

Aminopeptidase N = molecular target: T2, Aminopeptidase N (Plasmodium falciparum FcB1/Columbia, UniProt O96935); experiment: P. falciparum M1AAP inhibitors, biochemical, fluorogenic H-Leu-NHMec substrate, 1536-well (AID 1445); design: species or system Plasmodium falciparum 3D7, 3D7
T2 sequence (O96935 whole entry): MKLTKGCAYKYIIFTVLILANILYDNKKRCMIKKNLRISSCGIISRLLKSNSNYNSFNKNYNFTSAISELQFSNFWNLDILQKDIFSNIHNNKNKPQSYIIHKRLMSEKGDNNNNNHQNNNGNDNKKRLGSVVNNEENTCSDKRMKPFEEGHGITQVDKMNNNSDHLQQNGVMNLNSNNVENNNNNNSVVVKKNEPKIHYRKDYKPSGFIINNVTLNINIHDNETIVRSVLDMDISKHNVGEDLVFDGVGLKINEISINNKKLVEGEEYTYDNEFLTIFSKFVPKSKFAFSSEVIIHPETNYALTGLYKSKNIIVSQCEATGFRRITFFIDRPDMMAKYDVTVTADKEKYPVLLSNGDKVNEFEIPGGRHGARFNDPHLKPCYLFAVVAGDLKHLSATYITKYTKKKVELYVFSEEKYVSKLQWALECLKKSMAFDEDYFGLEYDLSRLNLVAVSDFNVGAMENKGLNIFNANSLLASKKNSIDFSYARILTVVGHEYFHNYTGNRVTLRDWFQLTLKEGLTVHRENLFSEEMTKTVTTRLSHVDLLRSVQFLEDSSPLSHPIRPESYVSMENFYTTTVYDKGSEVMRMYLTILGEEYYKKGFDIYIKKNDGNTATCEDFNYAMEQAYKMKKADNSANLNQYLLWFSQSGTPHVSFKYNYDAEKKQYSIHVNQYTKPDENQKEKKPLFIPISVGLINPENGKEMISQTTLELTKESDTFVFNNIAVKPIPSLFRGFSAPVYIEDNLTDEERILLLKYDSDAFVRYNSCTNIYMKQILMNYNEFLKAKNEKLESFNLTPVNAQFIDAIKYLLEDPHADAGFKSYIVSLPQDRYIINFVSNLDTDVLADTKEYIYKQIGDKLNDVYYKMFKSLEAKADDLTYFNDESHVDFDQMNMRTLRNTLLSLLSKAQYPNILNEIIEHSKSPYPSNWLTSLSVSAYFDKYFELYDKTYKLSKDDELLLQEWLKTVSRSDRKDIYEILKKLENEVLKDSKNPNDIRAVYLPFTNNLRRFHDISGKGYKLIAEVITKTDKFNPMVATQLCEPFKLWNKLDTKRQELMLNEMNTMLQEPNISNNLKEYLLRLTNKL

[3] = molecular target: T3, Polyadenylate-binding protein 1 (Homo sapiens, UniProt P11940); experiment: PABP1 MLLE–PAM2 interaction inhibitors, dose response, miRNA deadenylation inhibitor project, biochemical, fluorescence polarization, Cy5-PAM2 peptide, secondary (AID 602260); type: functional; conditions: read-out: IC50_Mean
[4] = molecular target: T3, Polyadenylate-binding protein 1; experiment: PABP1 MLLE–PAM2 binding inhibitor potency, dose response, biochemical, fluorescence polarization, FITC-PAM2 peptide (AID 602259); type: functional; conditions: read-out: IC50_Mean
Escherichia coli = experiment: microbe, parasite or virus in culture
[5] = molecular target: T4, Alkaline phosphatase, tissue-nonspecific isozyme (Homo sapiens, UniProt P05186); experiment: human TNAP enzyme inhibitors, SAR follow-up, biochemical, luminescent, dose response (AID 1056)
T4 sequence (P05186 whole entry): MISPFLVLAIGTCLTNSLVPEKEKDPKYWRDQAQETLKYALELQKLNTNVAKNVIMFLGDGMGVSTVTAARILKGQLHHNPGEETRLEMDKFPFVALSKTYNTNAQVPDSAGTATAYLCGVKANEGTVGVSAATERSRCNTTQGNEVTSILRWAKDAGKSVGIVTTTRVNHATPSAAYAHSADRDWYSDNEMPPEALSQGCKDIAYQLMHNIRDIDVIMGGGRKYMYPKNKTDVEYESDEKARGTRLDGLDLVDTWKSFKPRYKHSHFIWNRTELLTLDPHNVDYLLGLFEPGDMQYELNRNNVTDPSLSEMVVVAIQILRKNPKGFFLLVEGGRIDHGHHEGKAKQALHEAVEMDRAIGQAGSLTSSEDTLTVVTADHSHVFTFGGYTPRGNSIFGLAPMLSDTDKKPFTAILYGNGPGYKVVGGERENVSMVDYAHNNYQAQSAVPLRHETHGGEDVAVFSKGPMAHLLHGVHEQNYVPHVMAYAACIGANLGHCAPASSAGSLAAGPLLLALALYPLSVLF

[6] = cytotoxicity in HEK-293T cells, dose response, cytotoxicity control for BCR NF-kB inhibitor project, luminescence, B-cell screen hits (AID 489021); type: functional, cell-based;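 also: HEK-293T cells carrying an NF-kB luciferase reporter; cells exposed to compound for about 14 hours before viability readout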
[7] = molecular target: Alkaline phosphatase, placental type (Homo sapiens, UniProt P05187); experiment: PLAP enzyme inhibitors, confirmation, biochemical, luminescence (AID 1512); type: functional
Vero = experiment: cells; type: functional, cell-based; conditions: Chlorocebus sabaeus

Sequence of Voltage-dependent T-type calcium channel subunit alpha-1H (O95180 whole entry): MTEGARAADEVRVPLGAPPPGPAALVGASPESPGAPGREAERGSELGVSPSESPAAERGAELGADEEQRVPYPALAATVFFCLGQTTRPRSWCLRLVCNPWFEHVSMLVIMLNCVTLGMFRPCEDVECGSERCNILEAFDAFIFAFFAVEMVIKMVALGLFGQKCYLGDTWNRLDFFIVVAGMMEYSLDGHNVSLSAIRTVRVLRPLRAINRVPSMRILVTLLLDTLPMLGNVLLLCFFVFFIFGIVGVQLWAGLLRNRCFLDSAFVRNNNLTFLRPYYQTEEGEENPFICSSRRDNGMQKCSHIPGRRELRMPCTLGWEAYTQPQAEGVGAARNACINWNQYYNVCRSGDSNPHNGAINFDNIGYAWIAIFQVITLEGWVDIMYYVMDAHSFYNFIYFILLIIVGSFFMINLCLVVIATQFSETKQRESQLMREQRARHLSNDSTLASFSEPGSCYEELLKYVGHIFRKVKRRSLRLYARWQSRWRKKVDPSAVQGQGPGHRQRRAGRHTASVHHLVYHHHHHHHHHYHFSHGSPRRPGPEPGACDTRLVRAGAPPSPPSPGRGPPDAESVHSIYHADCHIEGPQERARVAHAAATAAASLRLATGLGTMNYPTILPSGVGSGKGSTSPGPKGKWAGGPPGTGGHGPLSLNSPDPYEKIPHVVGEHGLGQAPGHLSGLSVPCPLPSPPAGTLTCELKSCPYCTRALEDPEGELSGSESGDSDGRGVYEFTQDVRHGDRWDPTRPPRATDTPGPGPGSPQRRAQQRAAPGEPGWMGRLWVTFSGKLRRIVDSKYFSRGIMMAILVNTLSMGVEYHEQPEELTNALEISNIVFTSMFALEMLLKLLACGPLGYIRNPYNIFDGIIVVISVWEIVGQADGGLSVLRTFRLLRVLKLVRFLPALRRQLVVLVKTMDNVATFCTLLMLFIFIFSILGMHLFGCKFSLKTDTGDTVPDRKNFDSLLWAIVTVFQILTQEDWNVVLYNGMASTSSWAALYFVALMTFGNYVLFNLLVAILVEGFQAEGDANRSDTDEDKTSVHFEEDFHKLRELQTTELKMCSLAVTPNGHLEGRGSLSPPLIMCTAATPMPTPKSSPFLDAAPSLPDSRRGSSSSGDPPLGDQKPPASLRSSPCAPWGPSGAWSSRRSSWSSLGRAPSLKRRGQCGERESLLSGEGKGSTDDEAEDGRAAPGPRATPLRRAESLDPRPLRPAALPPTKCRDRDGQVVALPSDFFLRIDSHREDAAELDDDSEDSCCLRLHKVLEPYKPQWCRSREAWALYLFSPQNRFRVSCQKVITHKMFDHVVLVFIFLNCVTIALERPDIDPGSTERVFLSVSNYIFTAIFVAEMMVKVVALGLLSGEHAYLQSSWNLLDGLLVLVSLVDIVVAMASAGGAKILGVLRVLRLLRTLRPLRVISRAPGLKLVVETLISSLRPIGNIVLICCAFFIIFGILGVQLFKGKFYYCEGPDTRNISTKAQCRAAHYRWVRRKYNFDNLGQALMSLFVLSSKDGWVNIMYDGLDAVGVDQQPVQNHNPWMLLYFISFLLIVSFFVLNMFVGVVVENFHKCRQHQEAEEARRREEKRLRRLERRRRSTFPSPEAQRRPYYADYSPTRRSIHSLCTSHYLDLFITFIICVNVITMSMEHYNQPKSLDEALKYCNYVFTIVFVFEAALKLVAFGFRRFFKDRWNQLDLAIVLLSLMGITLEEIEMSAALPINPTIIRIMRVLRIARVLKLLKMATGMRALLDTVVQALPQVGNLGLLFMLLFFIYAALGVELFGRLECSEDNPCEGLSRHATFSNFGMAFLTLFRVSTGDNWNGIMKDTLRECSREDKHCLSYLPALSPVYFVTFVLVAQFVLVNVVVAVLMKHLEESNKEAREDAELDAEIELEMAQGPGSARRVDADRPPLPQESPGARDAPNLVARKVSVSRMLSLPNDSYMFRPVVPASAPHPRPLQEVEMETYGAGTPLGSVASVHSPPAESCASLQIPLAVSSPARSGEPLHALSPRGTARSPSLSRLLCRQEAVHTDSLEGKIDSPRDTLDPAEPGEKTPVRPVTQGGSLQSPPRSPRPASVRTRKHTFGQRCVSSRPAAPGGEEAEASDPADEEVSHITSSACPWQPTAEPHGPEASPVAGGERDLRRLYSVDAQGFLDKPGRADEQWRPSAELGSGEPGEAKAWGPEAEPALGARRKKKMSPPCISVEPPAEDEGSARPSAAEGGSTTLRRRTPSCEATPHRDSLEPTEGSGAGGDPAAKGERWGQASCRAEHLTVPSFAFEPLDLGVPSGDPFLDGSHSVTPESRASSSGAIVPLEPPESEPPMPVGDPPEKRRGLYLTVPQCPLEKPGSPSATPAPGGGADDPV
T3 sequence (P11940 whole entry): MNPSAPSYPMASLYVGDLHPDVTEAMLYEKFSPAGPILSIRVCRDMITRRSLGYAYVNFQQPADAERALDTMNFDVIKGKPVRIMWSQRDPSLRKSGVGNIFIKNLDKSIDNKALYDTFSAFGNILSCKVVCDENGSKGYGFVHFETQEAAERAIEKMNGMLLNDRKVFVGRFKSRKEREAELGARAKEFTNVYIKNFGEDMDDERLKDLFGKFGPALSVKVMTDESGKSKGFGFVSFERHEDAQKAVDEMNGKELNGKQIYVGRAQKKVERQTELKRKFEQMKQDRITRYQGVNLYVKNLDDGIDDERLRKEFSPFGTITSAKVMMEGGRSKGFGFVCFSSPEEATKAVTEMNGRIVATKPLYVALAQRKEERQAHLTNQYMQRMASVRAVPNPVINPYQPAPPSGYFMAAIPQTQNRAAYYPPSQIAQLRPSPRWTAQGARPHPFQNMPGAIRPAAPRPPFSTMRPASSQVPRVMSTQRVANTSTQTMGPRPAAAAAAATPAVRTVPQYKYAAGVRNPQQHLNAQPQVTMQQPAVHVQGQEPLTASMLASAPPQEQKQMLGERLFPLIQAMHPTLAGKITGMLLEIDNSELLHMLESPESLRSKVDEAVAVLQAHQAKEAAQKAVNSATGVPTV
Sequence of Alkaline phosphatase, placental type (P05187 whole entry): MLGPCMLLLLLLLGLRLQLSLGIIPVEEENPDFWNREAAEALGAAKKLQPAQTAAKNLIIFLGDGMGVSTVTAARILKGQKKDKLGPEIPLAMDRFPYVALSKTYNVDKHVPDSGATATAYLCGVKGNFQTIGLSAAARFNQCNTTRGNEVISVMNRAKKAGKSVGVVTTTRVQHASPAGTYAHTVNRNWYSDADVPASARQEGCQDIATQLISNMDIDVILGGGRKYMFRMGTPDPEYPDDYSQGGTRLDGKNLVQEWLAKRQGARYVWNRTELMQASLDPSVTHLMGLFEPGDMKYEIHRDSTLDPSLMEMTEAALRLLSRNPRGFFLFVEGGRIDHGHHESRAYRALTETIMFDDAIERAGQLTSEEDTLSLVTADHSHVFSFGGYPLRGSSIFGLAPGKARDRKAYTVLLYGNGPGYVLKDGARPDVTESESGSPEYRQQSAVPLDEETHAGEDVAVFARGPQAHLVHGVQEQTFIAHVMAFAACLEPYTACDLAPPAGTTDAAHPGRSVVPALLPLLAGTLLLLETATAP
Sequence of Beta-galactosidase (Q8VNN2 whole entry): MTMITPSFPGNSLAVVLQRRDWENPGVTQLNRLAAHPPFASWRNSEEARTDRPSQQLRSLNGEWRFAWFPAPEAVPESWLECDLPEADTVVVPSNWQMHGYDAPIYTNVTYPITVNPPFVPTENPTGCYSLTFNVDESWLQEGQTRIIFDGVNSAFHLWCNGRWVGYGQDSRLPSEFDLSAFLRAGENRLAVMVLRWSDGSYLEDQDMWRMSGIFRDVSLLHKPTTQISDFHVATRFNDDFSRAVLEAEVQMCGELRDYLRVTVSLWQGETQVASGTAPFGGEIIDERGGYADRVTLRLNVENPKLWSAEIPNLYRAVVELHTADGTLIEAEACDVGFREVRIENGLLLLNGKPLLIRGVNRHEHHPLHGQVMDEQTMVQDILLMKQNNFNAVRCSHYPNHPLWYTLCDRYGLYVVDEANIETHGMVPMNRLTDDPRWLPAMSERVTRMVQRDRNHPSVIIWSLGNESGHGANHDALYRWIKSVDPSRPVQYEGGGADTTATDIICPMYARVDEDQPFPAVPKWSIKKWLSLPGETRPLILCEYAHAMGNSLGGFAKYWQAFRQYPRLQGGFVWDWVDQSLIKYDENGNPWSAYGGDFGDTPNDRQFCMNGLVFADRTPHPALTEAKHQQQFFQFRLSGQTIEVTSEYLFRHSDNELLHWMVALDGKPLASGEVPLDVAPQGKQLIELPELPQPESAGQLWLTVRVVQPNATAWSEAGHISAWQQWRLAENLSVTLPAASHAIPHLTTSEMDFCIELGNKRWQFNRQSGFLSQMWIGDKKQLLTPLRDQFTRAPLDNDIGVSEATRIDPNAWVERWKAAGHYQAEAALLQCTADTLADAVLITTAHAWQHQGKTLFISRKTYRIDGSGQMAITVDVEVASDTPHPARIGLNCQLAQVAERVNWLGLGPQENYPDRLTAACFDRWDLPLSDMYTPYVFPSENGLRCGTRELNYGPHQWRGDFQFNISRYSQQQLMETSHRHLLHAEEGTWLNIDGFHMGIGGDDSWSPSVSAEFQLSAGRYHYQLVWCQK

Cc1cccc(-c2nc(C[S+]([O-])CC(=O)NCCCSC3CCCCC3)c(C)o2)c1 (stereo unspecified)
EC50 [1]: 3.94 µM (active)

O=C(CN1C(=O)C2C3CCC(C3)C2C1=O)OCC(=O)c1cccc([N+](=O)[O-])c1 (stereo unspecified)
EC50 (Beta-galactosidase): > 40 µM (inactive)
IC50 [2]: 26.3 µM (not active)

O=C(NC1CCN(C(=O)NCc2ccccc2)CC1)c1ccco1
IC50 (Aminopeptidase N): 93.2 µM (active)

COc1ccc(S(=O)(=O)N2CCN(c3ccc(C)cc3C)CC2)cc1OC
EC50 [1]: 9.63 µM (active)

Cc1cc2cc(CNC(=O)c3ccc(Br)o3)ccc2[nH]1
IC50 [3]: 45.1 µM (inactive)
EC50 [1]: 10.1 µM (active)
IC50 [4]: 49.6 µM (inactive)

CC(C)(C)n1nnnc1C(c1cc2cc3c(cc2nc1O)OCCO3)N1CCSCC1 (stereo unspecified)
AC50 (Escherichia coli): 28.6 µM (active)

O=C(Cn1cnc2ccccc21)c1ccc(O)c(O)c1
IC50 [5]: 14 µM (active)

NS(=O)(=O)c1ccc(NC(=O)CSc2nnc(-c3ccc(O)cc3)o2)cc1
AC50 (Escherichia coli): 127 µM (active)

COc1cc(/C(C)=N\NC(N)=S)cc(OC)c1OC
IC50 [6]: > 80 µM (inactive)

COc1ccc(-c2nnc(SCC(=O)c3ccc(O)c(O)c3)n2-c2ccccc2)cc1
IC50 [5]: > 100 µM (inactive)
IC50 [7]: 7.22 µM (active)

Cc1ccc2c(Cl)cc(Cl)c(O)c2n1 [CHLORQUINALDOL]
IC50 (Vero): > 25 µM (active)
AC50 (Escherichia coli): 54.3 µM (active)

— ChEMBL document CHEMBL1201862, “PubChem BioAssay data set” (2004)
